Consider 6 molecules from patent US11407715B2, “Substituted indoline derivatives as dengue viral replication inhibitors” (JANSSEN PHARMACEUTICALS, INC., priority 2017, dated 2022).

For one data set, the system named is DENV-2 16681 strain. Description: microbe, parasite or virus in culture. Conditions: for EC50: DENV-2 16681 eGFP, Vero cells, MOI 0.5, 3 days; for SI: SI=CC50/EC50, DENV-2 antiviral assay. Format: cell-based, Dengue virus.
The next data set is described as follows: in vitro. Conditions: African green monkey.

SMILES strings stand for the structures.

With `COc1cc(NC(C(=O)N2CCc3cc(OC)c(C(F)(F)F)cc32)c2ccc(Cl)cc2)cc(OCC2CC2C(=O)O)c1` (stereo not drawn) [Compound 22AA], in the data set with DENV-2 16681 strain, the response was half-maximal at 16000 pM (EC50) and the SI came out at 798. In the data set “in vitro”, this molecule gave a CC50 of 13 µM.
On to `COc1cc(NC(C(=O)N2CCc3cc(OC)c(C(F)(F)F)cc32)c2ccc(Cl)cc2)cc(O[C@H]2C[C@@H](C(=O)O)C2)c1` (stereo partly drawn) [Compound 23, (1s,3s)-3-(3-((1-(4-chlorophenyl)-2-(5-methoxy-6-(trifluoromethyl)indolin-1-yl)-2-oxoethyl)amino)-5-methoxyphenoxy)cyclobutene-carboxylic Acid], for which, in the data set on DENV-2 16681 strain (Dengue virus, DENV2, Vero, 72 h), the EC50 – broadly, the midpoint of the concentration-response curve – came out at 93 pM. Further, the SI with DENV-2 16681 strain is on record as 116424. The molecule further registered a CC50 in the data set “in vitro” of 12 µM.
With `COc1cc(NC(C(=O)N2CCc3cc(OC)c(C(F)(F)F)cc32)c2ccc(Cl)cc2)cc(OC2CC(C(=O)O)C2)c1` (stereo not drawn) [Compound 23A], in the data set on DENV-2 16681 strain, a half-maximal response (EC50) required 34000 pM and the SI is 321. The same molecule had a CC50 in “in vitro” of 11 µM.
The like results for `COc1cc(NC(C(=O)N2CCc3cc(OC)c(C(F)(F)F)cc32)c2ccc(Cl)cc2)cc(OCC2CC(C(=O)O)C2)c1` (stereo not drawn) [Compound 24, (1s,3s)-3-((3-((1-(4-chlorophenyl)-2-(5-methoxy-6-(trifluoromethyl)indolin-1-yl)-2-oxoethyl)amino)-5-methoxyphenoxy)methyl)-cyclobutanecarboxylic Acid] were, in that order, 640 pM, 18300 and 12 µM.
For `COc1cc(NC(C(=O)N2CCc3cc(F)c(OC(F)(F)F)cc32)c2ccc(Cl)cc2)cc(OC2CC(C(=O)O)C2)c1` (stereo not drawn) [Compound 27, ((1s,3s)-3-(3-((1-(4-chlorophenyl)-2-(5-fluoro-6-(trifluoromethoxy)indolin-1-yl)-2-oxoethyl)amino)-5-methoxyphenoxy)cyclobutene-carboxylic Acid], in that order: 67 pM, 149640 and 13 µM.
The like results for `COc1cc(NC(C(=O)N2CCc3cc(OC)c(Cl)cc32)c2ccc(Cl)cc2)cc(OC2CC(C(=O)O)C2)c1` (stereo not drawn) [Compound 32, (1s,3s)-3-(3-((2-(6-chloro-5-methoxyindolin-1-yl)-1-(4-chlorophenyl)-2-oxoethyl)amino)-5-methoxyphenoxy)cyclobutanecarboxylic Acid] were, in that order, 130 pM, 130935 and 15 µM.
